pIC50: −log10 of the molar value. In brackets after ≈: the same amount, converted by molar mass. Where a SMILES comes first, the peptide text is derived from it. Where no end group is shown, it is not given here. [ ]: non-standard residue; d: D form. d(hArg)(Nω,Nω'-(CH2CF3)2) = N[C@H](CCCCNC(=NCC(F)(F)F)NCC(F)(F)F)C(=O)O; Oic = O=C(O)[C@@H]1C[C@@H]2CCCC[C@@H]2N1; Arg(Me2s) = CN=C(NC)NCCC[C@H](N)C(=O)O; Arg(Et) = CCNC(=N)NCCC[C@H](N)C(=O)O; Arg(Me) = CNC(=N)NCCC[C@H](N)C(=O)O; Hyp = O=C(O)[C@@H]1C[C@@H](O)CN1; dTic = O=C(O)[C@H]1Cc2ccccc2CN1; 2Thi = N[C@@H](Cc1cccs1)C(=O)O
Legend:
[1] = in vitro
Procedure: (§1) The ability of bradykinin antagonists to resist proteolysis was determined by measuring the half-life of the analogs in plasma using HPLC. Rat blood was collected into heparin-containing tubes and centrifuged at 2000 X g for 10 minutes at 4°C to separate the plasma. Plasma samples were supplemented with bradykinin analogs (60 µM) and incubated at 37°C. At various times during incubation, an aliquot was removed and the reaction was stopped with 10% trifluoroacetic acid (TFA). The reaction mixture was applied to a 1 mL C₁₈ solid-phase extraction column (Baker) preconditioned with methanol and 10% TEA in H₂O. The analog was eluted with 3 x 100 µl of 15% acetonitrile (CH₃CN), 85% H₂O containing 0.2% TFA. The eluent was dried in a Speed-Vac concentrator (Savant) and redissolved in 300 µL of mobile phase consisting of various proportions of CH₃CN and H₂O containing 0.2% TEA depending on the analog. The sample was injected onto a Pecosphere® (Perkin-Elmer) 3 µm C₁₈ cartridge column (3.3 x 0.46 cm) and eluted with mobile phase at a flow rate of 1 ml/min using a Waters HPLC system. The analog was monitored by uv absorption at 210 nm and the results analyzed with a Hewlett-Packard integrator. Peak height was used to quantitate the amount of analog present in the sample. Plasma degradation followed first-order kinetics and the t1/2 (the time required for half the sample to be degraded) was determined graphically from a plot of log % analog remaining vs. incubation time.

[2] = in vitro; remark: listed apart in the source
Procedure: as §1

[3] = test system: Bradykinin-induced Hypotension; experiment: Protection against bradykinin-induced hypotension in rats; assay type: in vivo, Male Sprague-Dawley rats; conditions: co-administration (50-200 nmol/kg) with bradykinin (0.4 µg/kg) via carotid cannula, anesthetized rats
Procedure: Male Sprague-Dawley rats (200-300 g, Charles River) were anesthetized with 40 mg/kg ip sodium pentobarbital. The left femoral artery and vein were fitted with polyethylene cannulas (Intramedic PE-50) and the left carotid artery was fitted with a PE-20 cannula. […] The femoral arterial cannula was connected to a blood pressure transducer (Statham) and Beckman dynograph for recording systolic and diastolic pressure. The femoral venous cannula was used to administer maintenance anesthesia. […] All cannulas were filled with heparinized (40 U/mL) saline to maintain patency. Rats were placed on a 37°C water blanket and allowed to reach a stable anesthetic plane characterized by a mean arterial blood pressure of ≧90 mm Hg and a positive response to a toe pinch.

[4] = target: T1, Bradykinin Receptor (Cavia porcellus, UniProt O70526); experiment: Guinea pig ileum bradykinin receptor binding assay; conditions: concentration of analog that reduced the binding of 100 pM [³H]bradykinin by 50%; guinea pig ileum membrane preparation; read-out: IC₅₀
T1 construct: A 5 cm section of the distal ileum was removed, rinsed in cold saline and homogenized; from tissue; host or cells: guinea pig distal ileum, crude membrane pellet
T1 sequence (O70526 1-372): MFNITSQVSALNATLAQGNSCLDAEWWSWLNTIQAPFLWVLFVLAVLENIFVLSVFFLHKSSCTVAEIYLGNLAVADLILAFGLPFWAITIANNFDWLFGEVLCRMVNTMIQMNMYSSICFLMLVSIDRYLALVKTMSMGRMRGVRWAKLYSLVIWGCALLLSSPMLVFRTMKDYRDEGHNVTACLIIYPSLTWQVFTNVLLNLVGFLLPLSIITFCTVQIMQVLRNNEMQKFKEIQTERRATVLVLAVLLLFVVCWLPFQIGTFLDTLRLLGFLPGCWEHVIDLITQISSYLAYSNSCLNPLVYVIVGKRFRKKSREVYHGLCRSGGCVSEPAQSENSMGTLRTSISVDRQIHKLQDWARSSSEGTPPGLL
Procedure: The bradykinin analogs were assayed using a cell-free membrane receptor binding assay described by Innis et al Proc. Natl. Acad. Sci. USA 1981, 78:2630. Male Hartley guinea pigs (400-500g, Charles River) were euthanized by CO₂ asphyxiation. A 5 cm section of the distal ileum was removed, rinsed in cold saline and homogenized in 20 volumes of cold 20 mM TES buffer, pH 6.8, 1mM 1,10-phenanthroline using a Tissumizer (Tekmar) at 75% maximum speed for 12 seconds. The homogenate was centrifuged at 15,000 X g for 25 minutes at 4°C. The crude membrane pellet was washed once in 20 volumes of fresh homogenizing buffer and resuspended in assay buffer (25 mM TES buffer, pH 6.8, 1 mM dithiothreitol, 1 mM 1,10-phenanthroline, 1 µM captopril, 0.014% bacitracin and 0.1% bovine serum albumin) at 100 mL buffer per gram issue. The membrane preparation was quick-frozen in liquid N₂ and stored at -80°C.
The reaction mixture for the receptor binding assay contained bradykinin analog (1-1000 nM), 100 pM [³H]bradykinin (88 Ci/mmol) and 200 µl membrane preparation in a total volume of 500 µl assay buffer. Reactions were incubated at room temperature for 90 minutes and membrane-bound [³H]bradykinin was isolated by filtration through PEI-coated glass fiber filters. The filters were dried and counted for radioactivity in a liquid scintillation counter. Specific binding was calcuated by subtracting the nonspecific binding (determined in a parallel set of assays in the presence of 1 µM unlabeled bradykinin) from the total radioactivity bound to the filters. All incubations were performed in duplicate and the data expressed as % reduction in the specific binding of [³H]bradykinin. The IC₅₀ (the concentration of analog that reduced the binding of 100 pM [³H]bradykinin by 50%) was determined graphically from a plot of % reduction vs. log concentration.

[5] = test system: rat peritoneal mast cells; conditions: rat mixed peritoneal cells, 15 minutes, 35°C
Procedure: Mixed peritoneal cells were recovered from 3 or 4 male Sprague-Dawley rats (350 g, Iffa-Credo, France) by intraperitoneal injection of 10 mL of 0.9% NaCl (containing 50 µg/mL heparin). After gentle massage of the abdominal cavity for 1 minute, the peritoneal cells were removed, pooled and centrifuged for 5 minutes at 300 g. After three rinses in Krebs-Ringer Buffer (KRB: 141.9 mM NaCl; 4.7 mM KCl; 1.0 mM CaCl₂, 11.2 mM MgSO₄; 2.5 mM Na₂HPO₄; 0.6 mM KH₂PO₄), the cells were counted under a microscope and diluted in the appropriate volume of KRB to achieve a cell density of about 2 x 10⁶ cells per mL. Aliquots of 0.5 mL were prewarmed with 0.4 mL Ca⁺⁺-free KRB for 5 minutes at 35°C and 0.1 mL of the appropriate solution of the drugs tested was added or its vehicle alone. 15 minutes later, the reaction was stopped by the addition of 2.5 mL ice-cold KRB and chilling on ice.
After centrifugation of the cell suspension, the histamine content of the supernatant was assayed fluorimetrically by the method of Shore et al., (Immunol. 1959, 127:182) omitting the extraction procedure (Excitation 365 nm; Emission 450 nm).
The total histamine content of the cell suspension was determined after sonication (2 minutes - 5 second pulse frequency).
The spontaneous histamine release was subtracted from all the values measured.

[6] = Ferreira et al. 1967; cited from earlier work

Compound	half-life at 60 µM ([1]; human, plasma)	half-life at 60 µM ([2]; mouse, plasma)	pIC50 [4]	also measured
CN=C(N)NCCC[C@H](NC(=O)[C@H](Cc1ccccc1)NC(=O)[C@@H](Cc1ccccc1)NC(=O)[C@H](CO)NC(=O)[C@H](Cc1ccccc1)NC(=O)CNC(=O)[C@@H]1C[C@@H](O)CN1C(=O)[C@@H]1CCCN1C(=O)[C@H](CCCNC(=N)N)NC(=O)[C@H](N)CCCCNC(=NCC(F)(F)F)NCC(F)(F)F)C(=O)O [Compound 1, D-hArg(CH₂CF₃)₂-Arg-Pro-Hyp-Gly-Phe-Ser-D-Phe-Phe-Arg(Me)]	> 120 min	> 120 min	–	–
CN=C(N)NCCC[C@H](NC(=O)[C@H](Cc1ccc(OC)cc1)NC(=O)[C@@H](Cc1ccccc1)NC(=O)[C@H](CO)NC(=O)[C@H](Cc1ccccc1)NC(=O)CNC(=O)[C@@H]1C[C@@H](O)CN1C(=O)[C@@H]1CCCN1C(=O)[C@H](CCCNC(=N)N)NC(=O)[C@H](N)CCCCNC(=NCC(F)(F)F)NCC(F)(F)F)C(=O)O [Compound 4, D-hArg(CH₂CF₃)₂-Arg-Pro-Hyp-Gly-Phe-Ser-D-Phe-Tyr(Me)-Arg(Me)] (H-[d(hArg)(Nω,Nω'-(CH2CF3)2)]RP[Hyp]GFS[dF]Y(Me)[Arg(Me)]-OH)	–	–	–	protection against bradykinin-induced hypotension (drop in blood pressure) [3]: reduced or prevented the drop in blood pressure
CN=C(N)NCCC[C@H](NC(=O)[C@@H]1CCCN1C(=O)[C@H]1Cc2ccccc2CN1C(=O)[C@H](CO)NC(=O)[C@H](Cc1ccccc1)NC(=O)CNC(=O)[C@@H]1C[C@@H](O)CN1C(=O)[C@@H]1CCCN1C(=O)[C@H](CCCNC(N)=NC)NC(=O)[C@H](N)CCCCNC(=NCC(F)(F)F)NCC(F)(F)F)C(=O)O [Compound 21, D-hArg(CH₂CF₃)₂-Arg(Me)-Pro-Hyp-Gly-Phe-Ser-D-Tic-Pro-Arg(Me)] (H-[d(hArg)(Nω,Nω'-(CH2CF3)2)][Arg(Me)]P[Hyp]GFS[dTic]P[Arg(Me)]-OH)	–	–	8.66	–
CN=C(N)NCCC[C@H](NC(=O)[C@@H]1C[C@@H]2CCCC[C@@H]2N1C(=O)[C@H]1Cc2ccccc2CN1C(=O)[C@H](CO)NC(=O)[C@H](Cc1cccs1)NC(=O)CNC(=O)[C@@H]1C[C@@H](O)CN1C(=O)[C@@H]1CCCN1C(=O)[C@H](CCCNC(N)=NC)NC(=O)[C@H](N)CCCCNC(=NCC(F)(F)F)NCC(F)(F)F)C(=O)O [Compound 22, D-hArg(CH₂CF₃)₂-Arg(Me)-Pro-Hyp-Gly-Thi-Ser-D-Tic-Oic-Arg(Me)]	> 120 min	> 120 min	10.30	–
CN=C(N)NCCC[C@H](NC(=O)[C@H](Cc1ccc(OC)cc1)NC(=O)[C@@H](Cc1ccccc1)NC(=O)[C@H](CO)NC(=O)[C@H](Cc1ccccc1)NC(=O)CNC(=O)[C@@H]1C[C@@H](O)CN1C(=O)[C@@H]1CCCN1C(=O)[C@H](CCCNC(=N)N)NC(=O)[C@H](N)CCCNC(=N)N)C(=O)O [Compound 74, D-Arg-Arg-Pro-Hyp-Gly-Phe-Ser-D-Phe-Tyr(Me)-Arg(Me)] (H-[dR]RP[Hyp]GFS[dF]Y(Me)[Arg(Me)]-OH)	> 120 min	> 120 min	7.52	–
N=C(N)NCCC[C@H](NC(=O)[C@@H]1CCCN1C(=O)[C@H]1Cc2ccccc2CN1C(=O)[C@H](CO)NC(=O)[C@H](Cc1cccs1)NC(=O)CNC(=O)[C@@H]1C[C@@H](O)CN1C(=O)[C@@H]1CCCN1C(=O)[C@H](CCCNC(=N)N)NC(=O)[C@H](N)CCCCNC(=NCC(F)(F)F)NCC(F)(F)F)C(=O)O [Compound 75, D-hArg(CH₂CF₃)₂-Arg-Pro-Hyp-Gly-Thi-Ser-D-Tic-Pro-Arg] (H-[d(hArg)(Nω,Nω'-(CH2CF3)2)]RP[Hyp]G[2Thi]S[dTic]PR-OH)	–	–	9.00	–
CN=C(NC)NCCC[C@H](NC(=O)[C@@H]1C[C@@H]2CCCC[C@@H]2N1C(=O)[C@H]1Cc2ccccc2CN1C(=O)[C@H](CO)NC(=O)[C@H](Cc1cccs1)NC(=O)CNC(=O)[C@@H]1C[C@@H](O)CN1C(=O)[C@@H]1CCCN1C(=O)[C@H](CCCNC(=NC)NC)NC(=O)[C@H](N)CCCCNC(=NCC(F)(F)F)NCC(F)(F)F)C(=O)O [Compound 81, D-hArg(CH₂CF₃)₂-Arg(Me₂)-Pro-Hyp-Gly-Thi-Ser-D-Tic-Oic-Arg(Me₂)]	–	–	9.82	–
CN=C(NC)NCCC[C@H](NC(=O)[C@@H]1C[C@@H]2CCCC[C@@H]2N1C(=O)[C@H]1Cc2ccccc2CN1C(=O)[C@H](CO)NC(=O)[C@H](Cc1ccccc1)NC(=O)CNC(=O)[C@@H]1C[C@@H](O)CN1C(=O)[C@@H]1CCCN1C(=O)[C@H](CCCNC(=NC)NC)NC(=O)[C@H](N)CCCCNC(=NCC(F)(F)F)NCC(F)(F)F)C(=O)O [Compound 89, D-hArg(CH₂CF₃)₂-Arg(Me₂)-Pro-Hyp-Gly-Phe-Ser-D-Tic-Oic-Arg(Me₂)] (H-[d(hArg)(Nω,Nω'-(CH2CF3)2)][Arg(Me2s)]P[Hyp]GFS[dTic][Oic][Arg(Me2s)]-OH)	–	–	10.15	EC50 (histamine release) [5]: 312 µg/mL (≈ 204 µM)
CCN=C(N)NCCC[C@H](NC(=O)[C@H](N)CCCCNC(=NCC(F)(F)F)NCC(F)(F)F)C(=O)N1CCC[C@H]1C(=O)N1C[C@H](O)C[C@H]1C(=O)NCC(=O)N[C@@H](Cc1ccccc1)C(=O)N[C@@H](CO)C(=O)N1Cc2ccccc2C[C@@H]1C(=O)N1[C@H](C(=O)N[C@@H](CCCNC(=NC)NC)C(=O)O)C[C@@H]2CCCC[C@@H]21 [Compound 90, D-hArg(CH₂CF₃)₂-Arg(Et)-Pro-Hyp-Gly-Phe-Ser-D-Tic-Oic-Arg(Me₂)] (H-[d(hArg)(Nω,Nω'-(CH2CF3)2)][Arg(Et)]P[Hyp]GFS[dTic][Oic][Arg(Me2s)]-OH)	–	–	10.40	EC50 (histamine release) [5]: 216 µg/mL (≈ 141 µM)
CN=C(N)NCCC[C@H](NC(=O)[C@@H]1C[C@@H]2CCCC[C@@H]2N1C(=O)[C@H]1Cc2ccccc2CN1C(=O)[C@H](CO)NC(=O)[C@H](Cc1ccccc1)NC(=O)CNC(=O)[C@@H]1C[C@@H](O)CN1C(=O)[C@@H]1CCCN1C(=O)[C@H](CCCNC(N)=NC)NC(=O)[C@H](N)CCCCNC(=NCC(F)(F)F)NCC(F)(F)F)C(=O)O [Compound 91, D-hArg(CH₂CF₃)₂-Arg(Me)-Pro-Hyp-Gly-Phe-Ser-D-Tic-Oic-Arg(Me)] (H-[d(hArg)(Nω,Nω'-(CH2CF3)2)][Arg(Me)]P[Hyp]GFS[dTic][Oic][Arg(Me)]-OH)	> 120 min	> 120 min	10.30	–
RPPGFSPFR [bradykinin]	–	–	–	half-life at 60 µM [1]: < 5 min; half-life in the systemic circulation [6]: less than 30 seconds; half-life at 60 µM [2]: < 5 min; half-life at 60 µM ([2]; rat, plasma): < 5 min

— patent EP0472220A1, “Bradykinin antagonists” (SYNTEX (U.S.A.) INC., priority 1990, dated 1992)
